Laboratory results published in ChEMBL document CHEMBL1140609, “Carbonic anhydrase inhibitors. Inhibition of transmembrane isozymes XII (cancer-associated) and XIV with anions” (Bioorg Med Chem Lett, 2007).

Tests used:
Carbonic anhydrase 12 = Carbonic anhydrase 12 (Homo sapiens, UniProt O43570); assay: Inhibition of human recombinant catalytic domain CA12
Carbonic anhydrase 14 = Carbonic anhydrase 14 (Homo sapiens, UniProt Q9ULX7); assay: Inhibition of human recombinant full length CA14
Carbonic anhydrase 9 = Carbonic anhydrase 9 (Homo sapiens, UniProt Q16790); assay: Inhibition of human recombinant catalytic domain CA9

Carbonic anhydrase 12, sequence (O43570 whole entry, the tested form may be a part): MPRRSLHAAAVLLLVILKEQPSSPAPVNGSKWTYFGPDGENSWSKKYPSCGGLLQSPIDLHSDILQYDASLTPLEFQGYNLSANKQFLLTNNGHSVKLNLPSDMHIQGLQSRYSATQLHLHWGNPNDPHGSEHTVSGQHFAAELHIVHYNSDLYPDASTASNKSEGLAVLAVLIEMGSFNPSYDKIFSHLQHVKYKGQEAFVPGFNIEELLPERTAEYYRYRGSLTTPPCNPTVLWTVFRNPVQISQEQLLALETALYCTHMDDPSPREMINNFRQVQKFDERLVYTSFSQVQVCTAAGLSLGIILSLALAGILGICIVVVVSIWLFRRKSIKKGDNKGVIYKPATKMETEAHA
Carbonic anhydrase 14, sequence (Q9ULX7 whole entry, the tested form may be a part): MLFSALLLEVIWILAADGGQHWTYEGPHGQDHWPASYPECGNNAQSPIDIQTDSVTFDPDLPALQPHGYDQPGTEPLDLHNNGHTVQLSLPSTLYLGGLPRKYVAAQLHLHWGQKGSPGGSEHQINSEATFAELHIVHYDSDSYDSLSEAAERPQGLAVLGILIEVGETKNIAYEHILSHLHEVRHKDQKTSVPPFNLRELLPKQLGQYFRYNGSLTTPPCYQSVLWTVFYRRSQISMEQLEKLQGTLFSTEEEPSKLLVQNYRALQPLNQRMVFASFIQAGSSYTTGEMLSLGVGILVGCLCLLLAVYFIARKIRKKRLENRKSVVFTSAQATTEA

Ki (Carbonic anhydrase 12)	Ki (Carbonic anhydrase 14)	Ki (Carbonic anhydrase 9)	Structure (SMILES)
800 µM	92 µM		OB(O)c1ccccc1 [PHENYLBORONIC ACID]
700 µM	1090 µM	92 µM	NS(=O)(=O)O [SULFAMATE]
830 µM	750 µM		NS(N)(=O)=O [SULFAMIDE]
